Here are results for 19 compounds from US5686472A, “Inhibitors of farnesyl-protein transferase” (Merck & Co., Inc., priority 1993, dated 1997).

Molecules are shown by their SMILES.

The IC50 is the point on the concentration scale where inhibition reaches its midpoint.

Test system in the first series: not listed separately
Description: Observation on the isolated TFA salt (hygroscopicity, stability in solution). In kind it is physicochemical.
Details: not given
For the compound `CC[C@H](C)[C@@H](CO[C@@H](Cc1ccccc1)C(=O)N[C@H]1CCOC1=O)NC[C@@H](N)CS` [2(S)-[2(S)-[2(R)-Amino-3-mercapto]propylamino-3(S)-methyl]pentyloxy-3-phenylpropionyl-homoserine lactone], the hygroscopicity entry is listed as “hygroscopic”.

Staying with this series, now noted: left in solution and exposed to air.
Regarding `CC[C@H](C)[C@@H](CO[C@@H](Cc1ccccc1)C(=O)N[C@H]1CCOC1=O)NC[C@@H](N)CS` [2(S)-[2(S)-[2(R)-Amino-3-mercapto]propylamino-3(S)-methyl]pentyloxy-3-phenylpropionyl-homoserine lactone], the “stability (disulphide formation)” value is “prone to disulphide formation if left in solution and exposed to air”.

The next series has as its target recombinant human farnesyl transferase (Homo sapiens, UniProt P49354+P49356). Description: In vitro inhibition of ras farnesyl transferase. Conditions: concentration of test compound giving 50% inhibition of FTase, Table 1, read-out: IC50 (inhibition of RAS farnesylation). In kind it is biochemical. On the procedure: In vitro inhibition of ras farnesyl transferase
The assay was conducted as described in Pompliano, et. al., Biochemistry 31, 3800 (1992) with the exception of utilizing recombinant human farnesyl transferase in place of the partially purified bovine enzyme described therein.
*(IC50 is the concentration of the test compound which gives 50%
inhibition of FTase under the described assay conditions.
Regarding `C=CC[C@H](OC[C@@H](NC[C@@H](N)CS)[C@@H](C)CC)C(=O)N[C@@H](CCO)C(=O)O`, the IC50 worked out at 18 nM.
The same measure, in the same setting: for `CC[C@H](C)[C@@H](CO[C@@H](Cc1ccccc1)C(=O)N[C@@H](CCS(C)(=O)=O)C(=O)O)NC[C@@H](N)CS` [2(S)-[2(S)-[2(R)-Amino-3-mercapto]propylamino-3(S)-methyl]-pentyloxy-3-phenylpropionyl-methionine sulfone] the value was 2.2 nM; for `CCC[C@H](OC[C@@H](NC[C@@H](N)CS)[C@@H](C)CC)C(=O)N[C@@H](CCO)C(=O)O` [2(S)-[2(S)-[2(R)-Amino-3-mercapto]propylamino-3(S)-methyl]-pentyloxy-pentanoyl-homoserine], 7 nM.
Same read-out and setting: to `CC[C@H](C)[C@@H](CS(=O)(=O)[C@@](C)(Cc1ccccc1)C(=O)N[C@@H](CCO)C(=O)O)NC[C@@H](N)CS` [2(S)-[2(S)-[2(R)-Amino-3-mercapto]propylamino-3(S)-methyl]pentyl-sulfonyl-2-methyl-3-phenylpropionyl-homo-serine] belongs 980 nM; to `CC[C@H](C)[C@@H](CO[C@@](C)(Cc1ccccc1)C(=O)N[C@@H](CCO)C(=O)O)NC[C@@H](N)CS` [2(S)-[2(S)-[2(R)-Amino-3-mercapto]propylamino-3(S)-methyl]pentyloxy-2-methyl-3-phenylpropionyl-homoserine], 7 nM; to `CC[C@H](C)[C@@H](CO[C@H](C(=O)N[C@@H](CCO)C(=O)O)C(C)C)NC[C@@H](N)CS` [2(S)-[2(S)-[2(R)-Amino-3-mercapto]propylamino-3(S)-methyl]pentyloxy-3-methylbutanoyl-homoserine], 1.4 nM.
Still for that read-out and setting: for `CC[C@H](C)[C@@H](CO[C@H](C(=O)N[C@@H](CCO)C(=O)O)C(C)c1ccccc1)NC[C@@H](N)CS` (stereo partly drawn) [2(S)-[2(S)-[2(R)-Amino-3-mercapto]propylamino-3(S)-methyl]pentyloxy-3-phenylbutanoyl-homoserine] the value was 17 nM; for `CC[C@H](C)[C@@H](CO[C@@H](Cc1ccccc1)C(=O)N[C@@H](CCO)C(=O)O)NC[C@@H](N)CS` [2(S)-[2(S)-[2(R)-Amino-3-mercapto]propylamino-3(S)-methyl]pentyloxy-3-phenylpropionyl-homoserine], 5 nM; for `CC[C@H](C)[C@@H](CO[C@@H](Cc1ccccc1)C(=O)N[C@@H](CCSC)C(=O)O)NC[C@@H](N)CS` [2(S)-[2(S)-[2(R)-Amino-3-mercapto]propylamino-3(S)-methyl]pentyloxy-3-phenylpropionyl-methionine], 4 nM.
On to `CC[C@H](C)[C@@H](CO[C@@H](CC(C)C)C(=O)N[C@@H](CCO)C(=O)O)NC[C@@H](N)CS` [2(S)-[2(S)-[2(R)-Amino-3-mercapto]propylamino-3(S)-methyl]pentyloxy-4-methylpentanoyl-homoserine], for which the IC50 came out at 19 nM.
`CC[C@H](C)[C@@H](CS[C@@](C)(Cc1ccccc1)C(=O)N[C@@H](CCO)C(=O)O)NC[C@@H](N)CS` [2(S)-[2(S)-[2(R)-Amino-3-mercapto]propylamino-3(S)-methyl]pentylthio-2-methyl-3-phenylpropionyl-homoserine]: the IC50 was 240 nM.

Another series has as its system RAS farnesylation in the v-ras cell line. Description: In vivo ras farnesylation assay (inhibition of RAS farnesylation in the v-ras cell line). The series is classed as cell-based. Conditions: 4 h at 37° C. before labelling, additional 20 h, Table 2. As for the experimental part:
In vivo ras farnesylation assay
The cell line used in this assay was the v-ras line, which expressed viral Ha-ms p21. The assay was performed essentially as described in DeClue, J. E. et. al., Cancer Research 51, 712-717, (1991). Cells in 10 cm dishes at 50-75% confluency were treated with the test compound (final concentration of solvent, methanol or dimethyl sulfoxide, was 0.1%). After 4 hours at 37° C., the cells were labelled in 3 ml methionine-free DMEM supplemented with 10% regular DMEM, 2% fetal bovine serum and 400 μCi[^35 S]methionine (1000 Ci/mmol). After an additional 20 hours, the cells were lysed in 1 ml lysis buffer (1% NP40/20 mM HEPES, pH 7.5/5 mM Mg/Cl2 /1mM DTT/10 μg/ml aprotinen/2 μg/ml leupeptin/2 μg/ml antipain/0.5 mM PMSF) and the lysates cleared by centrifugation at 100,000×g for 45 minutes. Aliquots of lysates containing equal numbers of acid-precipitable counts were bought to 1 ml with IP buffer (lysis buffer lacking DTT) and immunoprecipitated with the ras-specific monoclonal antibody Y13-259 (Furth, M. E. et. al., J. Virol. 43, 294-304, (1982)). Following a 2 hour antibody incubation at 4° C., 200 μl of a 25% suspension of protein A-Sepharose coated with rabbit anti rat IgG was added for 45 minutes. The immunoprecipitates were washed four times with IP was buffer ([…] HEPES, pH 7.5/1 mN EDTA/1% Triton X-100.0.5% deoxycholate/0.1%/SDS.0.1M NaCl) boiled in SDS-Page sample buffer and loaded on 13% acrylamide gels. When the dye front reached the bottom, the gel was fixed, soaked in Enlightening, dried and autoradiographed. The intensities of the bands corresponding to farnesylated and nonfarnesylated ras proteins were compared to determine the percent inhibition of farnesyl transfer to protein.
`CC[C@H](C)[C@@H](CO[C@@H](Cc1ccccc1)C(=O)N[C@@H](CCS(C)(=O)=O)C(=O)OC(C)C)NC[C@@H](N)CS` [2(S)-[2(S)-[2(R)-Amino-3-mercapto]-propylamino-3(S)-methyl]pentyloxy-3-phenylpropionyl-methionine sulfone isopropyl ester] returned an IC50 of 100 nM.
On the same count and under the same terms, to `C=CC[C@H](OC[C@@H](NC[C@@H](N)CS)[C@@H](C)CC)C(=O)N[C@H]1CCOC1=O` [2(S)-[2(S)-[2(R)-Amino-3-mercapto]propylamino-3(S)-methyl]-pentyloxy-4-pentenoyl-homoserine lactone] belongs 10000 nM; to `CC[C@H](C)[C@@H](CO[C@@H](CC(C)C)C(=O)N[C@H]1CCOC1=O)NC[C@@H](N)CS` [2(S)-[2(S)-[2(R)-Amino-3-mercapto]propylamino-3(S)-methyl]pentyloxy4-methylpentanoyl-homoserine lactone], 10000 nM; to `CC[C@H](C)[C@@H](CO[C@@](C)(Cc1ccccc1)C(=O)N[C@H]1CCOC1=O)NC[C@@H](N)CS` [2(S)-[2(S)-[2(R)-Amino-3-mercapto]propylamino-3(S)-methyl]pentyloxy-2-methyl-3-phenylpropionyl-homoserine lactone], 50000 nM.
The same measure, in the same setting: to `CC[C@H](C)[C@@H](CO[C@@H](Cc1ccccc1)C(=O)N[C@H]1CCOC1=O)NC[C@@H](N)CS` [2(S)-[2(S)-[2(R)-Amino-3-mercapto]propylamino-3(S)-methyl]pentyloxy-3-phenylpropionyl-homoserine lactone] belongs 2500 nM; to `CC[C@H](C)[C@@H](CO[C@@H](Cc1ccccc1)C(=O)N[C@@H](CCSC)C(=O)OC)NC[C@@H](N)CS` [2(S)-[2(S)-[2(R)-Amino-3-mercapto]propylamino-3(S)-methyl]pentyloxy-3-phenylpropionyl-methionine methyl ester], 100 nM; to `CC[C@H](C)[C@@H](CO[C@@H](Cc1ccccc1)C(=O)N[C@@H](CCS(C)(=O)=O)C(=O)OC)NC[C@@H](N)CS` [2(S)-[2(S)-[2(R)-Amino-3-mercapto]propylamino-3(S)-methyl]pentyloxy-3-phenylpropionyl-methionine sulfone methyl ester], 100 nM.
Still for that read-out and setting: for `CCC[C@H](OC[C@@H](NC[C@@H](N)CS)[C@@H](C)CC)C(=O)N[C@H]1CCOC1=O` [2(S)-[2(S)-[2(R)-Amino-3-mercapto]propylamino-3(S)-methyl]pentyloxy-pentanoyl-homoserine lactone] the value was 10000 nM.
